Read-outs that look alike come from different tables or passages of the source. Marks after values point to notes of the source that are not given here.
Key:
N. crassa LAD [1] = target: T1, N. crassa LAD (Neurospora crassa, UniProt Q7SI09); details: for % Activity: relative to L-arabinitol = 100, 50 mM Tris pH 8.0, saturated NAD+
Procedure: (§1) Initial rates were determined using a Varian Cary 100 Bio UV-visible spectrophotometer (Varian) at 25° C. in 50 mM Tris (pH 8.0). […] Kinetic measurements with substrate L-arabinitol and cofactor NAD^+ were taken in a 5-by-5 matrix format, with substrate and cofactor concentrations varied from below their Km to 10-fold higher than their Km. The kinetic data were analyzed with a modified version of Cleland's program (Cleland, W. W. (1979) Statistical analysis of enzyme kinetic data, Methods Enzymol 63, 103-138.). Vmax and Km for both L-arabinitol and NAD^+ were obtained by fitting the data to a sequential ordered mechanism with NAD^+ binding first, based on the proposed mechanism for sorbitol dehydrogenase (Lindstad et al. (1992) The kinetic mechanism of sheep liver sorbitol dehydrogenase, Eur J Biochem 210, 641-647.) v=VmaxAB/(KiaKB+KAB+KBA+AB) (EQ. 1)
where v is the initial velocity, Vmax is the maximum velocity, KA and KB are the Michaelis-Menten constants for NAD+ and L-arabinitol, respectively, A and B are the concentrations of NAD+ and L-arabinitol, respectively, and Kia is the dissociation constant for NAD+.
Kinetics. The data were used to calculate the kinetic constants for various substrates by fitting the Michaelis-Menten equation using Origin 5.0. […] The data represent averages of assays performed in duplicate or triplicate on two separate occasions.

[2] = LADs of other organisms, from references, cited from earlier work
[3] = 4° C. and freeze-thawing; cited from earlier work
[4] = Kinetic parameters of LAD from various source organisms; type: biochemical; details: greater
Procedure: as §1

N. crassa LAD [5] = target: T1, N. crassa LAD; test: Cofactor specificity of N. crassa LAD by HPLC; type: biochemical; set-up: GST (glutathione S-transferase), with thrombin cleavage site (N, cleaved yes); made in house; host or cells: Escherichia coli BL21(DE3), vector pGEX-4T-3 (pGEX-lad1); details: 1 mM NAD(P)+, 25 mM L-arabinitol, 50 mM Tris pH 8.0, 20 min at 37° C., UV 340 nm
Procedure: The cofactor specificity of N. crassa LAD was examined by HPLC. The separation of NAD+, NADP+, NADH, and NADPH was carried out using standard methods. No discernible cross-contamination of oxidized cofactors was observed. 20 μL reaction mixtures consisting of equal parts of 1 mM NAD(P)+ and 25 mM L-arabinitol in 50 mM Tris (pH 8.0) were set up, and following addition of approximately 1 μg of enzyme, the reaction was allowed to proceed for 20 min at 37° C. […] This indicated the strong preference for NAD+ as the cofactor of N. crassa LAD.
HPLC analysis. The enzyme (1 μg) was incubated in a mixture of buffer and 25 mM L-arabinitol with 1 mM NAD(P)+ at 37° C. for 20 min. The sample was eluted on a Zorbax 3.0×150 mm C-18 (3.5 μm) column with a UV detector (Agilent 1100 series). The eluent consisted of two components: 0.1 M KH2PO4 containing 5 mM tetrabutylammonium hydrogen sulfate (pH 5.5) (buffer A) and 100% methanol (buffer B). The most suitable gradient was an initial isocratic step for 6 min at 93% buffer A, a gradient for 5 min from 7 to 30% buffer B, and a final isocratic step for 5 min at 30% buffer B.

[6] = with indicated substrate, 25° C., 50 mM Tris pH 8.0, saturated NAD+ (2 mM)

## OC[C@@H](O)[C@@H](O)[C@H](O)[C@@H](O)CO [D-Sorbitol, D-sorbitol]
N. crassa LAD [1]
  activity as substrate or cofactor of N. crassa LAD (in words): No activity was observed
N. crassa LAD [1]; 25° C.
  % Activity: 0^c %

## A. niger: L-arabinitol 4-dehydrogenase from Aspergillus niger (literature)
[2]
  Specific activity: 96 U/mg
[2]; read-out: Km,L-arabinitol
  Km: 89 mM
[2]; read-out: Km,NAD+
  Km: 0.05 mM
[3]
  stability of purified enzyme as reported (in words): highly unstable, with rapidly diminishing activity at 4° C., and complete loss of activity after freeze-thawing of the enzyme
[4]
  specific activity relative to N. crassa LAD: about 3 fold

## OC[C@@H](O)C(O)[C@H](O)CO [D-Arabinitol, D-arabinitol]
N. crassa LAD [1]
  activity as substrate or cofactor of N. crassa LAD (in words): No activity was observed
N. crassa LAD [1]; 25° C.
  % Activity: 0%

## A. oryzae: L-arabinitol 4-dehydrogenase from Aspergillus oryzae (literature)
[2]
  Specific activity: 0.04 U/mg

## OC[C@@H](O)[C@H](O)[C@@H](O)CO [Xylitol, xylitol]
N. crassa LAD [1]; 25° C.
  % Activity: 4.9%
N. crassa LAD [1]; [6]
  kcat (mean ± SD): 970 ± 40 min⁻¹

## OC[C@@H](O)[C@@H](O)[C@H](O)[C@H](O)CO [D-Mannitol, D-mannitol]
N. crassa LAD [1]
  activity as substrate or cofactor of N. crassa LAD (in words): No activity was observed
N. crassa LAD [1]; 25° C.
  % Activity: 0%

## H. jecorina: L-arabinitol 4-dehydrogenase from Hypocrea jecorina (literature; two table lines from different references)
[2]
  kcat: 0.85 s⁻¹
[2]; read-out: Km,NAD+
  Km: 0.18 mM

## OC[C@H](O)C(O)[C@@H](O)CO [L-Arabinitol, L-arabinitol]
N. crassa LAD [1]; read-out: Km value for substrate
  Km: 16 mM
N. crassa LAD [1]; 25° C.
  % Activity: 100%

## OC[C@@H](O)[C@@H](O)[C@@H](O)CO [Adonitol, adonitol]
N. crassa LAD [1]; read-out: Km (mean ± SD), with indicated substrate, 25° C., 50 mM Tris pH 8.0, saturated NAD+ (2 mM)
  Km: 35 ± 3 mM
N. crassa LAD [1]; 25° C.
  % Activity: 46%
N. crassa LAD [1]; [6]
  kcat (mean ± SD): 1,080 ± 30 min^−1

## NC(=O)c1ccc[n+]([C@@H]2O[C@H](COP(=O)([O-])OP(=O)(O)OC[C@H]3O[C@@H](n4cnc5c(N)ncnc54)[C@H](O)[C@@H]3O)[C@@H](O)[C@H]2O)c1 [NAD, NAD+]
N. crassa LAD [1]; read-out: Km for L-arabinitol (mean ± SD), with indicated coenzyme, 25° C., 50 mM Tris pH 8.0
  Km: 16 ± 3 mM
N. crassa LAD [1]; read-out: Km for NAD(P) (mean ± SD), 25° C., 50 mM Tris pH 8.0, substrate L-arabinitol
  Km: 0.174 mM
N. crassa LAD [1]; with indicated coenzyme, 25° C., 50 mM Tris pH 8.0, substrate L-arabinitol
  kcat (mean ± SD): 1,206 ± 54 min^−1
N. crassa LAD [5]
  reduced cofactor peak by HPLC (in words): a single peak (UV 340 nm) was observed that had the same retention time as authentic NADH

## NC(=O)c1ccc[n+]([C@@H]2O[C@H](COP(=O)([O-])OP(=O)(O)OC[C@H]3O[C@@H](n4cnc5c(N)ncnc54)[C@H](OP(=O)(O)O)[C@@H]3O)[C@@H](O)[C@H]2O)c1 [NADP, NADP+]
N. crassa LAD [1]; listed as NADP+
  activity as substrate or cofactor of N. crassa LAD (in words): small yet detectable activity
N. crassa LAD [1]; listed as NADP^+
  activity as substrate or cofactor of N. crassa LAD (in words): very low yet detectable activity
N. crassa LAD [5]
  reduced cofactor peak by HPLC (in words): a small yet detectable peak was observed with a retention time corresponding to an authentic sample of NADPH
